Assay results from PMC9739877, “Discovery and Mechanistic Investigation of Piperazinone Phenylalanine Derivatives with Terminal Indole or Benzene Ring as Novel HIV-1 Capsid Modulators” (Molecules, 2022).

Columns and labels:
MT-4 cells = test: Cytotoxicity in mock-infected MT-4 cells, MTT assay; assay type: cell-based; details: 50% reduction of viability of mock-infected MT-4 cells
Description: (§1) II. In vitro anti-HIV Assay in MT-4 Cells […]
(§2) performed using the MTT assay as described below. Stock solutions (10 × final concentration) of test compounds were added in 25 µL volumes to two series of […]
(§3) infected cells at the beginning of each experiment. Serial 5-fold dilutions of test […]
(§4) Biomek 3000 robot (Beckman Instruments, Fullerton, CA). Untreated HIV- and mock-infected cell samples were included as controls. HIV stock (50 µL) at 100-300 CCID50 […]
(§5) or mock-infected wells of the microtiter tray. Mock-infected cells were used to evaluate […]
(§6) cytotoxicity. Exponentially growing MT-4 cells were centrifuged for 5 minutes at 220 g, and the supernatant was discarded. […]
(§7) cells/mL, and 50 µL volumes were transferred to the microtiter tray wells. Five days […]
(§8) spectrophotometrically using the MTT assay. The MTT assay is based on the reduction […]
(§9) M1000, Tecan), at two wavelengths (540 and 690 nm). All data were calculated using the median absorbance value of three wells.
(§10) (OD540) of the mock-infected control sample by 50%. The concentration achieving 50%

HIV-2 (ROD) = test: Anti-HIV-2 (ROD) activity in MT-4 cells, MTT assay; assay type: cell-based; details: Human immunodeficiency virus 2, MT4, 50% protection against HIV-induced cytotoxicity
Description: (§11) II. In vitro anti-HIV Assay in MT-4 Cells
(§12) Evaluation of the antiviral activity of the compounds against HIV in MT-4 cells was performed using the MTT assay as described below. Stock solutions (10 × final concentration) of test compounds were added in 25 µL volumes to two series of triplicate wells to allow simultaneous evaluation of their effects on mock- and HIV-infected cells at the beginning of each experiment. Serial 5-fold dilutions of test compounds were made directly in flat-bottomed 96-well microtiter trays using a Biomek 3000 robot (Beckman Instruments, Fullerton, CA). Untreated HIV- and mock-infected cell samples were included as controls. HIV stock (50 µL) at 100-300 CCID50 (50 % cell culture infectious doses) or culture medium was added to either the infected or mock-infected wells of the microtiter tray. Mock-infected cells were used to evaluate the effects of the test compound on uninfected cells to assess the test compounds' cytotoxicity. Exponentially growing MT-4 cells were centrifuged for 5 minutes at 220 g, and the supernatant was discarded. […]
(§13) cells/mL, and 50 µL volumes were transferred to the microtiter tray wells. Five days after infection, the viability of mock-and HIV-infected cells was examined spectrophotometrically using the MTT assay. The MTT assay is based on the reduction of yellow colored 3-(4,5-dimethylthiazol-2-yl)-2,5-diphenyltetrazolium bromide (MTT) (Acros Organics) by mitochondrial dehydrogenase activity in metabolically active cells to a blue-purple formazan that can be measured spectrophotometrically. The absorbances were read in an eight-channel computer-controlled photometer (Infinite M1000, Tecan), at two wavelengths (540 and 690 nm). All data were calculated using the median absorbance value of three wells. […]
(§14) was defined as the concentration of the test compound that reduced the absorbance (OD540) of the mock-infected control sample by 50%. The concentration achieving 50% protection against the cytopathic effect of the virus in infected cells was defined as the […]

HIV-1 (IIIB) = test: microbe, parasite or virus in culture; assay type: cell-based; details: Human immunodeficiency virus 1, MT4, 50% protection against HIV-induced cytotoxicity, MT-4 cells, MTT
Description: as §11, §12, §13, §14

[1] = Cytotoxicity in mock-infected MT-4 cells, MTT assay; assay type: cell-based; details: human, 50% reduction of viability of mock-infected MT-4 cells
Description: as §1, §2, §3, §4, §5, §6, §7, §8, §9, §10

in vitro = details: both, human, plasma

| SMILES | CC50 (MT-4 cells) | EC50 (HIV-2 (ROD)) | EC50 (HIV-1 (IIIB)) | further results |
| --- | --- | --- | --- | --- |
| COc1ccc(N(C)C(=O)[C@H](Cc2ccccc2)NC(=O)CN2CCN(C(=O)Cc3c(C)[nH]c4ccccc34)CC2=O)cc1 [7a, (S)-N-(4-methoxyphenyl)-N-methyl-2-(2-(4-(2-(2-methyl-1H-indol-3-yl)acetyl)-2-oxopiperazin-1-yl)acetamido)-3-phenylpropanamide] | 108 ± 3.26 µM | 7.74 ± 0.79 µM | 14.3 ± 0.76 µM |  |
| COc1ccc(N(C)C(=O)[C@H](Cc2ccccc2)NC(=O)CN2CCN(C(=O)Cc3c[nH]c4ccc(OC)cc34)CC2=O)cc1 [7b, (S)-2-(2-(4-(2-(5-methoxy-1H-indol-3-yl)acetyl)-2-oxopiperazin-1-yl)acetamido)-N-(4-methoxyphenyl)-N-methyl-3-phenylpropanamide] | 104 ± 3.37 µM | 16.9 ± 3.58 µM | 14.6 ± 0.39 µM |  |
| COc1ccc(N(C)C(=O)[C@H](Cc2ccccc2)NC(=O)CN2CCN(C(=O)Cc3c[nH]c4ccc(Br)cc34)CC2=O)cc1 [7c, (S)-2-(2-(4-(2-(5-bromo-1H-indol-3-yl)acetyl)-2-oxopiperazin-1-yl)acetamido)-N-(4-methoxyphenyl)-N-methyl-3-phenylpropanamide] | 16.4 ± 3.44 µM | > 16.4 µM | > 16.4 µM |  |
| COc1ccc(N(C)C(=O)[C@H](Cc2ccccc2)NC(=O)CN2CCN(C(=O)Cc3c[nH]c4ccccc34)CC2=O)cc1 [7d, (S)-2-(2-(4-(2-(1H-indol-3-yl)acetyl)-2-oxopiperazin-1-yl)acetamido)-N-(4-methoxyphenyl)-N-methyl-3-phenylpropanamide] | 112 ± 3.22 µM | 4.89 ± 1.39 µM | 15 ± 0.24 µM |  |
| COc1ccc(N(C)C(=O)[C@H](Cc2ccccc2)NC(=O)CN2CCN(C(=O)Cc3c[nH]c4ccc(O)cc34)CC2=O)cc1 [7e, (S)-2-(2-(4-(2-(5-hydroxy-1H-indol-3-yl)acetyl)-2-oxopiperazin-1-yl)acetamido)-N-(4-methoxyphenyl)-N-methyl-3-phenylpropanamide] |  | 186 ± 4.42 µM | 198 ± 9.74 µM | CC50 at 5 days [1]: > 209 µM |
| COc1ccc(N(C)C(=O)[C@H](Cc2ccccc2)NC(=O)CN2CCN(C(=O)Cc3c[nH]c4ccc(F)cc34)CC2=O)cc1 [7f, (S)-2-(2-(4-(2-(5-fluoro-1H-indol-3-yl)acetyl)-2-oxopiperazin-1-yl)acetamido)-N-(4-methoxyphenyl)-N-methyl-3-phenylpropanamide] | 90.1 ± 15.7 µM | 4.52 ± 0.87 µM | 21.8 ± 4.81 µM |  |
| COc1ccc(N(C)C(=O)[C@H](Cc2ccccc2)NC(=O)CN2CCN(C(=O)c3ccc(NC(C)=O)cc3)CC2=O)cc1 [7g, (S)-2-(2-(4-(4-acetamidobenzoyl)-2-oxopiperazin-1-yl)acetamido)-N-(4-methoxyphenyl)-N-methyl-3-phenylpropanamide] |  | 184 ± 19.3 µM | 203 ± 11 µM | CC50 at 5 days [1]: > 213 µM |
| COc1ccc(N(C)C(=O)[C@H](Cc2ccccc2)NC(=O)CN2CCN(C(=O)c3ccc(NS(C)(=O)=O)cc3)CC2=O)cc1 [7h, (S)-N-(4-methoxyphenyl)-N-methyl-2-(2-(4-(4-(methylsulfonamido)benzoyl)-2-oxopiperazin-1-yl)acetamido)-3-phenylpropanamide] |  | > 201 µM | 192 ± 3.17 µM | CC50 at 5 days [1]: > 201 µM |
| COc1ccc(N(C)C(=O)[C@H](Cc2ccccc2)NC(=O)CN2CCN(C(=O)c3ccc(NC(=O)C4CC4)cc3)CC2=O)cc1 [7i, (S)-N-(4-(4-(2-((1-((4-methoxyphenyl)(methyl)amino)-1-oxo-3-phenylpropan-2-yl)amino)-2-oxoethyl)-3-oxopiperazine-1-carbonyl)phenyl)cyclopropanecarboxamide] | 168 ± 19.8 µM | 15 ± 2.27 µM | > 168 µM |  |
| COc1ccc(N(C)C(=O)[C@H](Cc2ccccc2)NC(=O)CN2CCN(C(=O)c3ccc(NC(=O)C(F)(F)F)cc3)CC2=O)cc1 [7j, (S)-N-(4-methoxyphenyl)-N-methyl-2-(2-(2-oxo-4-(4-(2,2,2-trifluoroacetamido)benzoyl)piperazin-1-yl)acetamido)-3-phenylpropanamide] |  | 15 ± 4.83 µM | 158 ± 6.77 µM | CC50 at 5 days [1]: > 195 µM |
| COc1ccc(N(C)C(=O)[C@H](Cc2cc(F)cc(F)c2)NC(=O)CN2CCN(C(=O)Cc3c(C)[nH]c4ccccc34)CC2=O)cc1 [F2-7a, (S)-3-(3,5-difluorophenyl)-N-(4-methoxyphenyl)-N-methyl-2-(2-(4-(2-(2-methyl-1H-indol-3-yl)acetyl)-2-oxopiperazin-1-yl)acetamido)propenamide] | 76.9 ± 20 µM | 19.7 ± 6.59 µM | 20.8 ± 5.09 µM |  |
| COc1ccc(N(C)C(=O)[C@H](Cc2cc(F)cc(F)c2)NC(=O)CN2CCN(C(=O)Cc3c[nH]c4ccc(OC)cc34)CC2=O)cc1 [F2-7b, (S)-3-(3,5-difluorophenyl)-2-(2-(4-(2-(5-methoxy-1H-indol-3-yl)acetyl)-2-oxopiperazin-1-yl)acetamido)-N-(4-methoxyphenyl)-N-methylpropanamide] | 15.9 ± 3.83 µM | > 15.9 µM | > 15.9 µM |  |
| COc1ccc(N(C)C(=O)[C@H](Cc2cc(F)cc(F)c2)NC(=O)CN2CCN(C(=O)Cc3c[nH]c4ccc(Br)cc34)CC2=O)cc1 [F2-7c, (S)-2-(2-(4-(2-(5-bromo-1H-indol-3-yl)acetyl)-2-oxopiperazin-1-yl)acetamido)-3-(3,5-difluorophenyl)-N-(4-methoxyphenyl)-N-methylpropanamide] | 3.15 ± 0.4 µM | > 3.15 µM | > 3.15 µM |  |
| COc1ccc(N(C)C(=O)[C@H](Cc2cc(F)cc(F)c2)NC(=O)CN2CCN(C(=O)Cc3c[nH]c4ccccc34)CC2=O)cc1 [F2-7d, (S)-2-(2-(4-(2-(1H-indol-3-yl)acetyl)-2-oxopiperazin-1-yl)acetamido)-3-(3,5-difluorophenyl)-N-(4-methoxyphenyl)-N-methylpropanamide] | 57.8 ± 21.8 µM | 17.6 ± 9.14 µM | 29.4 ± 7.03 µM |  |
| COc1ccc(N(C)C(=O)[C@H](Cc2cc(F)cc(F)c2)NC(=O)CN2CCN(C(=O)Cc3c[nH]c4ccc(O)cc34)CC2=O)cc1 [F2-7e, (S)-3-(3,5-difluorophenyl)-2-(2-(4-(2-(5-hydroxy-1H-indol-3-yl)acetyl)-2-oxopiperazin-1-yl)acetamido)-N-(4-methoxyphenyl)-N-methylpropanamide] | 132 ± 33 µM | ≥ 49.6 µM | > 132 µM |  |
| COc1ccc(N(C)C(=O)[C@H](Cc2cc(F)cc(F)c2)NC(=O)CN2CCN(C(=O)c3ccc(NC(C)=O)cc3)CC2=O)cc1 [F2-7g, (S)-2-(2-(4-(4-acetamidobenzoyl)-2-oxopiperazin-1-yl)acetamido)-3-(3,5-difluorophenyl)-N-(4-methoxyphenyl)-N-methylpropanamide] | 196 ± 6.8 µM | 192 ± 4.57 µM | 177 ± 16.6 µM |  |
| COc1ccc(N(C)C(=O)[C@H](Cc2cc(F)cc(F)c2)NC(=O)CN2CCN(C(=O)c3ccc(NC(=O)C4CC4)cc3)CC2=O)cc1 [F2-7i, (S)-N-(4-(4-(2-((3-(3,5-difluorophenyl)-1-((4-methoxyphenyl)(methyl)amino)-1-oxopropan-2-yl)amino)-2-oxoethyl)-3-oxopiperazine-1-carbonyl)phenyl)cyclopropanecarboxamide] | 88.6 ± 11.3 µM | 15.1 ± 0.68 µM | 14.4 ± 1.31 µM |  |
| COc1ccc(N(C)C(=O)[C@H](Cc2cc(F)cc(F)c2)NC(=O)CN2CCN(C(=O)c3ccc(NC(=O)C(F)(F)F)cc3)CC2=O)cc1 [F2-7j, (S)-3-(3,5-difluorophenyl)-N-(4-methoxyphenyl)-N-methyl-2-(2-(2-oxo-4-(4-(2,2,2-trifluoroacetamido)benzoyl)piperazin-1-yl)acetamido)propenamide] | 150 ± 25.5 µM | 16.6 ± 6.13 µM | 13.7 ± 0.7 µM |  |
| Cc1[nH]c2ccccc2c1CC(=O)N[C@@H](Cc1ccccc1)C(=O)N(C)c1ccccc1 [PF74] |  |  |  | half-life at 2 μM (in vitro): > 289 min; remaining at 0 h, 2 μM (in vitro): 100% |
| CC(C)[N+](C)(CCOC(=O)C1c2ccccc2Oc2ccccc21)C(C)C [Propantheline bromide] |  |  |  | half-life at 2 μM (in vitro): 11.2 min; remaining at 0 h, 2 μM (in vitro): 100%; remaining at 10 min, 2 μM (in vitro): 56.5%; remaining at 0.5 h, 2 μM (in vitro): 19.4%; remaining at 1 h, 2 μM (in vitro): 1.9%; remaining at 2 h, 2 μM (in vitro): 0.1% |
